# Source: patent US11306064B2, “Benzothia(di)azepine compounds and their use as bile acid modulators” (Albireo AB, priority 2018, dated 2022)
# Columns and labels:
# Human ASBT = biological target: T1, Human ASBT (Homo sapiens, UniProt Q12908); test: ASBT (h/m) assay: 3H-taurocholic acid uptake in human ASBT-overexpressing cells; type: cell-based; conditions: 0.25 μM 3H-taurocholic acid and 5 μM cold taurocholic acid, 20 minutes, read-out: hASBT IC50
# T1 construct: expressed in transfected cells; kept under Puromycin selection
# T1 sequence (Q12908 1-348): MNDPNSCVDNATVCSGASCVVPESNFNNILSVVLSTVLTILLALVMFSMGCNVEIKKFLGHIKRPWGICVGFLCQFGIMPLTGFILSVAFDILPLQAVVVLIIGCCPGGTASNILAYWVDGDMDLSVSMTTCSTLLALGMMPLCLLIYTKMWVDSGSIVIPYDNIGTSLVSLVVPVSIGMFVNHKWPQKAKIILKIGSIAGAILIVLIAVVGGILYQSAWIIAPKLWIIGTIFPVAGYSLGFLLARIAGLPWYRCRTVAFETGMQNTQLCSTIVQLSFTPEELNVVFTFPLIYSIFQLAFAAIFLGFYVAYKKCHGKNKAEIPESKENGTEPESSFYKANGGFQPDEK
# Method in brief: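 ASBT-overexpressing cells, seeded 48 h earlier, took up 0.25 µM 3H-taurocholic acid plus 5 µM cold taurocholate for 20 min at 37 °C with inhibitor (10-point 3-fold series, top 10 µM, 0.2% DMSO). Ice stop, washes with cold 1 mM taurocholate in HEPES-HBSS pH 7.4, scintillation counting.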
# HepaRG cells = test: HepaRG-based assay: 3H-taurocholic acid uptake in differentiated HepaRG cells; type: cell-based; conditions: 0.3 μM 3H-taurocholic acid and 7.5 μM cold taurocholic acid, 30 minutes
# Method in brief: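 Differentiated HepaRG cells cultured 7 days post-seeding were exposed for 30 min at 37 °C to 0.3 μM 3H-taurocholic acid plus 7.5 μM cold taurocholic acid with inhibitor (3-fold dilutions, 0.2% DMSO). Uptake was stopped on ice, washed with 1 mM unlabelled taurocholic acid, and counted by scintillation.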
Structure (SMILES),IC50 (Human ASBT) [µM],IC50 (HepaRG cells) [µM],"IC50 (HepaRG cells; Homo sapiens, HepaRG) [µM]"
"CCCCC1(CC)CN(c2ccccc2)c2cc(Cl)c(O/C=C(\F)C(=O)O)cc2S(=O)(=O)C1 (single isomer, unassigned) [Example 48, (Z)-3-((3-butyl-7-chloro-3-ethyl-1,1-dioxido-5-phenyl-2,3,4,5-tetrahydro-1,5-benzothiazepin-8-yl)oxy)-2-fluoroacrylic acid]",0.042,0.26,–
"CCC1(CC)CN(c2ccccc2)c2cc(SC)c(O/C=C(\F)C(=O)O)cc2S(=O)(=O)C1 [Example 44, (Z)-3-((3,3-diethyl-7-(methylthio)-1,1-dioxido-5-phenyl-2,3,4,5-tetrahydro-1,5-benzothiazepin-8-yl)oxy)-2-fluoroacrylic Acid]",0.257,–,0.205
"CCCCC1(CCCC)CN(c2ccccc2)c2cc(SC)c(O/C=C(\F)C(=O)O)cc2S(=O)(=O)C1 [Example 11, (Z)-3-((3,3-dibutyl-7-(methylthio)-1,1-dioxido-5-phenyl-2,3,4,5-tetrahydro-1,5-benzothiazepin-8-yl)oxy)-2-fluoroacrylic acid]",0.048,–,1.09
"CCCCC1(CC)CN(c2ccccc2)c2cc(Br)c(O/C=C/C(=O)O)cc2S(=O)(=O)C1 (single isomer, unassigned) [Example 6, (E)-3-((7-bromo-3-butyl-3-ethyl-1,1-dioxido-5-phenyl-2,3,4,5-tetrahydro-1,5-benzothiazepin-8-yl)oxy)acrylic acid]",0.057,–,0.809
"CCCCC1(CC)CN(c2ccccc2)c2cc(SC)c(O/C=C(\F)C(=O)O)cc2S(=O)(=O)C1 (single isomer, unassigned) [Example 43, (Z)-3-((3-butyl-3-ethyl-7-(methylthio)-1,1-dioxido-5-phenyl-2,3,4,5-tetrahydro-1,5-benzothiazepin-8-yl)oxy)-2-fluoroacrylic acid]",0.021,0.405,–
"CCCCC1(CC)CN(c2ccccc2)c2cc(SC)c(O/C=C/C(=O)O)cc2S(=O)(=O)C1 (single isomer, unassigned) [Example 18, (E)-3-((3-butyl-3-ethyl-7-(methylthio)-1,1-dioxido-5-phenyl-2,3,4,5-tetrahydro-1,5-benzothiazepin-8-yl)oxy)acrylic acid]",0.019,–,1.26
